Earlier results as cited in patent US20060134300A1, “Nutritional supplement for caffeine-containing beverages” (priority 2004, published 2006).

What was measured:
[1] = dose of 150 mg/kg, extended wakefulness
[2] = test system: subjects put under stress; details: 100 mg/kg, within an hour of ingesting
[3] = test system: adrenaline and noradrenaline; details: triple dose of caffeine
[4] = test system: sympathetic nervous system; details: intraventricular administration
[5] = test system: rats; details: rat, in vivo

N[C@@H](Cc1ccc(O)cc1)C(=O)O [tyrosine]
lapse probability on a high-event-rate vigilance task [1]: significant reduction | performance decline on a psychomotor task [1]: significant amelioration | cognitive performance [2]: improved their cognitive performance

Cn1c(=O)c2c(ncn2C)n(C)c1=O [caffeine, 1,3,7-trimethylxanthine]
catecholamines (adrenaline and noradrenaline) [3]: significantly increased

NCCS(=O)(=O)O [taurine, 2-aminoethanesulfonic acid]
sympathetic nerve activity [4]: inhibited sympathetic nerve activity | LD 50 [5]: greater than 5,000 mg/kg
